# Test results taken from US20190070174A1, “METHODS OF TREATING NEURODEGENERATIVE DISEASES” (priority 2016, published 2019).
# What was measured:
# [1] = system: mouse Atxn3; assay: Organotypic brain slice cultures from YACMJD84.2 (Q84) mice, immunoblotting; format: cell-based; details: sagittal brain slices treated for 48 hours, cerebellum and brainstem
# Method: (§1) Nine slices per brain were used in each set of cultures. […] After 48 hours of incubation at 37° C./5% CO2, brain slices were assessed for ATXN3 levels by immunoblotting or immunofluorescence and for cell viability. For immunoblotting, each slice was macrodissected into separate cerebellum and brainstem that were immediately frozen at −80° C. in 80 μL and 150 μL of cold RIPA buffer containing protease inhibitors (Complete, Roche Diagnostics), respectively. Cell viability was assessed on treated slices by incubation in propidium iodide (PI) 1 μg/mL in culture medium for 1 hour. Slices were then mounted in PROLONG Gold Antifade Reagent (Invitrogen) and imaged using a FV500 Olympus confocal microscope.
# Protein lysates from cell cultures, mouse brain slices or mouse brains were obtained by lysis in RIPA buffer containing protease inhibitors (Complete, Roche Diagnostics), followed by sonication and centrifugation. The supernatants (soluble protein fractions) were collected, total protein concentration was determined using the BCA method (Pierce) and then stored at −80° C. […] Insoluble proteins were then quantified, and 100 μg were loaded in a filter trap assay apparatus and transferred to a nitrocellulose membrane (0.45 μm pore) that was incubated overnight with rabbit anti-MJD antibody (1:5000) at 4° C. […] Band intensity was quantified by densitometry using ImageJ. […]
# [2] = mouse, in vivo; cited from earlier work
# [3] = system: ATXN3Q55; assay: Native PAGE analysis at the end of the ThT assay; format: biochemical, human
# [4] = system: mouse Atxn3 transcripts; assay: Subchronic treatment of Q84 mice, quantitative RT-PCR; format: in vivo; details: brainstem, 15 mg/kg IP daily for 10 days
# Method: (§2) YACMJD84.2 transgenic mice were housed in cages with a maximum number of five animals and maintained in a standard 12-hour light/dark cycle with food and water ad libitum. Genotyping was performed using DNA isolated from tail biopsy at the time of weaning, and genotypes of all studied mice were confirmed using DNA extracted from tails collected post-mortem. […] Five hours after the final injection, mice were anesthetized with ketamine/xylazine and perfused transcardially with phosphate buffered saline (PBS) (for RNA and protein studies), and brains were immediately placed on dry ice and stored at −80° C.
# (§3) Reverse transcription of 1.5 μg of total RNA per sample was performed using the iScript cDNA synthesis kit (Bio-RAD). Human ATXN3 and mouse Atxn3, Drd2, 5HT1A, 5HT2A and Gapdh (housekeeping) transcript levels were accessed by quantitative real-time PCR. Relative gene expression was determined using the ΔΔCT method, normalizing for Gapdh mRNA levels.
# [5] = system: human ATXN3 transcripts; assay: as above; format: in vivo; details: brainstem, 15 mg/kg IP daily for 10 days
# Method: as §2, §3
# [6] = system: human mutant ATXN3Q84; format: cell-based; details: sagittal brain slices treated for 48 hours, cerebellum and brainstem
# Method: as §1
# Protein lysates from cell cultures, mouse brain slices or mouse brains were obtained by lysis in RIPA buffer containing protease inhibitors (Complete, Roche Diagnostics), followed by sonication and centrifugation. The supernatants (soluble protein fractions) were collected, total protein concentration was determined using the BCA method (Pierce) and then stored at −80° C. […] Pellets corresponding to insoluble protein fractions were resuspended in 100 μL of Laemmli buffer 2× and boiled for 10 min. Insoluble proteins were then quantified, and 100 μg were loaded in a filter trap assay apparatus and transferred to a nitrocellulose membrane (0.45 μm pore) that was incubated overnight with rabbit anti-MJD antibody (1:5000) at 4° C. Bound primary antibodies were visualized by incubation with a peroxidase-conjugated anti-mouse or anti-rabbit secondary antibody (1:10000; Jackson Immuno Research Laboratories) followed by treatment with the ECL-plus reagent (Western Lighting, PerkinElmer) and exposure to autoradiography films. Band intensity was quantified by densitometry using ImageJ.
# To assess the efficacy of the five compounds to reduce ATXN3 levels in the mammalian brain, secondary screens in organotypic brain slice cultures derived from hemizygous YACMJD84.2 (Q84) transgenic mice were performed.
# [7] = system: 5HT2A transcripts; assay: Subchronic treatment of Q84 mice, quantitative RT-PCR; format: in vivo, mouse; details: brainstem of Q84 mice
# Method: as §2, §3
# [8] = system: ATXN3Q26; assay: Thioflavin T (ThT) fluorescence fibril formation assay; format: biochemical, human; details: ATXN3Q26 10 μM, compound 400 μM
# Method: (§4) pGEX-6P1 plasmids encoding GST-ATXN3Q26 and GST-ATXN3Q55 were transformed in Rosetta (DE3) BL21 cells. Colonies grown overnight in LB/ampicillin/chloramphenicol plates at 37° C. were resuspended in 150 mL of the same selection medium and incubated at 37° C., 230 rpm for 2 hours. Bacterial cultures of 1 L of medium were prepared by inoculating 50 mL of the pre-culture and incubating at 37° C., 230 rpm until reaching an OD (600 nm) of 0.6 to 0.8. Expression of fusion proteins was then induced by adding 1 mM isopropyl-1-thio-D-galactopyranoside (IPTG) for 3 hours at 37° C. Cells were collected by centrifugation and stored at −20° C. […] Chromatography fractions were analyzed by SDS-PAGE, and the ones containing pure proteins were concentrated and protein concentration was determined in the Nanodrop (Thermo Scientific) by absorption at 280 nm.
# (§5) Samples and blank control (only buffer) (110 μL) were dispensed in each well of a Black/Clear flat bottom 96-well plate (Corning), which was sealed and incubated at 37° C. with agitation in a FLUOstar Omega (BMG Labtech Inc) plate reader. Fluorescence of three replicates of each sample was measured every 10 min for up to 5 days. The […] wavelengths of the filter were 440 nm and 490 nm, respectively, and readings were taken using 90% gain adjustment. Values for protein solutions were normalized to readings of blank buffer.
# [9] = system: ATXN3Q55; assay: as above; format: biochemical, human; details: ATXN3Q55 10 μM, compound 400 μM
# Method: as §4, §5
structure (smiles),measurement,setting,value
O=C1CCc2ccc(OCCCCN3CCN(c4cccc(Cl)c4Cl)CC3)cc2N1 [aripiprazole],levels of mouse Atxn3,[1],reduced levels
same,maximum tolerable dose,[2],15 mg/kg
same,HMW or other species of ATXN3Q55,[3],no differences
same,mouse Atxn3 transcript levels vs vehicle-treated mice,[4],similar
same,human ATXN3 transcript levels vs vehicle-treated mice,[5],similar
same,levels of human mutant ATXN3Q84,[6],reduced levels
same,5HT2A transcripts,[7],increasing
same,fibril formation by normal ATXN3Q26,[8],did not interfere with fibril formation
same,kinetics of ATXN3Q55 fibril formation in the presence or absence of compound,[9],identical
